Data taken from patent publication US20250332173A1, “COMPOUNDS AND METHODS FOR MODULATING NUCLEIC ACID SPLICING” (REMIX THERAPEUTICS INC., priority 2021, published 2025).
pIC50: −log10 of the molar value. Read-outs that look alike come from different tables or passages of the source.

Key:
Format in all cases: cell-based, human
HTT mRNA = experiment: RT-qPCR splicing assay, HTT canonical junction (CJ) and alternative junction (AJ) mRNA; settings: Homo sapiens; for AC50: increase in HTT alternative junction (AJ) mRNA, read-out: HTT AJ AC50
Method: (§1) The expression of a target mRNA was measured by detecting the formation of an exon-exon junction in the canonical transcript (CJ). A compound mediated exon-inclusion event was detected by observing an increase in formation of a new junction with an alternative exon (AJ). Real-time qPCR assays were used to detect these splicing switches and interrogate the potency of various compounds towards different target genes. A high-throughput real time quantitative PCR (RT-qPCR) assay was developed to measure these two isoforms of the mRNA (CJ and AJ) for exemplary genes, such as HTT, SMN2, and MYB, together with a control housekeeping gene, GAPDH or GUSB or PPIA, used for normalization. Briefly, the A673 or K562 cell line was treated with various compounds described herein (e.g., compounds of Formula (I)). After treatment, the levels of the HTT, MYB, or SMN2 mRNA targets were determined from each sample of cell lysate by cDNA synthesis followed by qPCR.
(§2) • Cells-to-CT 1-step kit: ThermoFisher A25602, Cells-to-CT lysis reagent: ThermoFisher 4391851C, TaqMan™ Fast Virus 1-Step Master Mix: ThermoFisher 4444436 • GAPDH: VIC-PL, ThermoFisher 4326317E (Assay: Hs99999905_m1)—used for K562/suspension cell lines • GUSB: VIC-PL, ThermoFisher 4326320E (Assay: Hs99999908_m1)—used for K562/suspension cell lines • PPIA: VIC-PL, ThermoFisher 4326316E (Assay: Hs99999904_m1)—used for A673/adherent cell lines
(§3) The A673 cell line was cultured in DMEM with 10% FBS. Cells were diluted with full growth media and plated in a 96-well plate (15,000 cells in 100 ul media per well). The plate was incubated at 37° C. with 5% CO2 for 24 hours to allow cells to adhere. An 11-point 3-fold serial dilution of the compounds was made in DMSO then diluted in media in an intermediate plate. Compounds were transferred from the intermediate plate to the cell plate with the top dose at a final concentration of 10 uM in the well. Final DMSO concentration was kept at or below 0.25%. The cell plate was returned to the incubator at 37° C. with 5% CO2 for an additional 24 hours.
(§4) The K562 cell line was cultured in IMDM with 10% FBS. For K562, cells were diluted with full growth media and plated in either a 96-well plate (50,000 cells in 50 uL media per well) or a 384-well plate (8,000-40,000 cells in 45 uL media per well). An 11-point 3-fold serial dilution of the compounds were made in DMSO then diluted in media in an intermediate plate. Compound was transferred from the intermediate plate to the cell plate with the top dose at a final concentration of 10 uM in the well. Final DMSO concentration was kept at or below 0.25%. Final volume was 100 uL for 96-well plate and 50 uL for 384-well plate. The cell plate was then placed in an incubator at 37° C. with 5% CO2 for 24 hours.
(§5) The cells were then gently washed with 50 uL-100 uL cold PBS before proceeding to addition of lysis buffer. 30 uL-50 uL of room temperature lysis buffer with DNAse I (and optionally RNAsin) was added to each well. Cells were shaken/mixed thoroughly at room temperature for 5-10 minutes for lysis to take place and then 3 uL-5 uL of room temperature stop solution was added and wells were shaken/mixed again. After 2-5 minutes, the cell lysate plate was transferred to ice for RT-qPCR reaction setup. The lysates could also be frozen at −80° C. for later use.
(§6) In some cases, a direct lysis buffer was used. An appropriate volume of 3× lysis buffer (10 mM Tris, 150 mM NaCl, 1.5%-2.5% Igepal and 0.1-1 U/uL RNAsin, pH 7.4) was directly added to either K562 or A673 cells in media and mixed by pipetting 3 times. The plates were then incubated at room temperature with shaking/rocking for 20-50 minutes to allow for lysis to take place. After this time, the cell lysate plate was transferred to ice to set up for the RT-qPCR reactions. The lysates could also be frozen at −80° C. for later use.

SMN2 mRNA = experiment: RT-qPCR splicing assay, SMN2 canonical junction (CJ) mRNA; settings: Homo sapiens
Method: as §1, §3, §4, §5, §6
(§7) To set up 10 uL RT-qPCR reactions, cell lysates were transferred to 384-well qPCR plates containing the master mix according to the table below. The plates were sealed, gently vortexed, and spun down before the run. The volumes were adjusted accordingly in some instances where the reaction was carried in 20 uL. The table below summarizes the components of the RT-qPCR reactions:
(§8) The RT-qPCR reaction was performed using a QuantStudio (ThermoFisher) under the following fast cycling conditions.

MYB mRNA = experiment: RT-qPCR splicing assay, MYB canonical junction (CJ) and alternative junction (AJ) mRNA; settings: Homo sapiens; for AC50: increase in MYB alternative junction (AJ) mRNA, read-out: MYB AJ AC50
Method: as §1, §2, §3, §4, §5, §6

Target C = experiment: RT-qPCR splicing assay panel, Target C canonical junction (CJ) mRNA; settings: Homo sapiens
Method: as §1, §3, §4, §5, §6, §7, §8

[1] = decrease in HTT canonical junction (CJ) mRNA, RT-qPCR, read-out: HTT CJ IC50
[2] = Table 5 panel, canonical junction qPCR, compound concentration having 50% response in CJ decrease, read-out: HTT IC50 (decrease in CJ mRNA levels)
[3] = Table 5 panel, canonical junction qPCR, compound concentration having 50% response in CJ decrease, read-out: SMN2 IC50 (decrease in CJ mRNA levels)
[4] = Table 5 panel, canonical junction qPCR, compound concentration having 50% response in CJ decrease, read-out: MYB IC50 (decrease in CJ mRNA levels)
[5] = decrease in MYB canonical junction (CJ) mRNA, RT-qPCR, read-out: MYB CJ IC50
[6] = Table 5 panel, canonical junction qPCR, compound concentration having 50% response in CJ decrease, read-out: Target C IC50 (decrease in CJ mRNA levels)
[7] = canonical junction qPCR panel, Table 5, read-out: HTT (decrease in CJ mRNA levels, IC50)
[8] = canonical junction qPCR panel, Table 5, read-out: SMN2 (decrease in CJ mRNA levels, IC50)
[9] = canonical junction qPCR panel, Table 5, read-out: MYB (decrease in CJ mRNA levels, IC50)
[10] = canonical junction qPCR panel, Table 5, read-out: Target C (decrease in CJ mRNA levels, IC50)

Row | Structure (SMILES) | pIC50 (HTT mRNA; [1]) | AC50 (HTT mRNA; RT-qPCR) [nM] | pIC50 (HTT mRNA; [2]) | pIC50 (SMN2 mRNA; [3]) | pIC50 (MYB mRNA; [4]) | pIC50 (MYB mRNA; [5]) | AC50 (MYB mRNA; RT-qPCR) [nM] | pIC50 (Target C; [6]) | pIC50 (HTT mRNA; [7]) | pIC50 (SMN2 mRNA; [8]) | pIC50 (MYB mRNA; [9]) | pIC50 (Target C; [10])
1 | Cc1cn2cc(-c3cc(F)c4c(=O)n([C@H]5CC[C@@H](N(C)C)CC5)ccc4c3)cc(F)c2n1 [Compound 656] | 6.00 to 7.00 | 100 to 1000 | 6.00 to 7.00 | > 7.00 | > 7.00 | > 7.00 | < 100 | 6.00 to 7.00 |  |  |  | 
2 | CN1CCN(c2ccc3nc(-c4ccc5nn(C)cc5c4)[nH]c(=O)c3c2)CC1 [Compound 108] | < 5.00 | > 10000 | < 5.00 | 5.00 to 6.00 | < 5.00 | < 5.00 | > 10000 | 5.00 to 6.00 |  |  |  | 
3 | Cc1cn2nc(-c3ccc4c(c3)CCN(C3CCNC(C)C3)C4=O)cc(C)c2n1 (stereo not drawn) [Compound 327] | 5.00 to 6.00 | 1000 to 10000 | 5.00 to 6.00 | 5.00 to 6.00 | 5.00 to 6.00 | 5.00 to 6.00 | 1000 to 10000 | 5.00 to 6.00 |  |  |  | 
4 | Cc1cc(-c2ccc3nc(NC4CCN(C)CC4)[nH]c(=O)c3c2)cc2cn(C)nc12 [Compound 167] | < 5.00 | > 10000 | < 5.00 | < 5.00 | < 5.00 | < 5.00 | > 10000 | < 5.00 |  |  |  | 
5 | Cc1cn2cc(-c3cc(F)c4c(=O)n([C@H]5CC[C@H](N(C)C)CC5)ccc4c3)cc(F)c2n1 [Compound 654] | > 7.00 | < 100 | > 7.00 | > 7.00 | > 7.00 | > 7.00 | < 100 | 6.00 to 7.00 |  |  |  | 
6 | Cc1cn2nc(-c3ccc4c(=O)n([C@@H]5CCNC6(CC6)C5)ncc4n3)cc(C)c2n1 [Compound 1298] | > 7.00 | < 100 |  |  |  | 6.00 to 7.00 | 100 to 1000 |  | > 7.00 | > 7.00 | 6.00 to 7.00 | 6.00 to 7.00
7 | Cn1cc2cc(-c3ccc4c(=O)n(C5CCNCC5)ccc4n3)c(O)c(C#N)c2n1 [Compound 1283] | 6.00 to 7.00 | 100 to 1000 |  |  |  | 6.00 to 7.00 | 100 to 1000 |  | 6.00 to 7.00 | > 7.00 | 6.00 to 7.00 | 5.00 to 6.00
8 | Cc1cn2nc(-c3ccc4nc(N5CCNC6(CC6)C5)[nH]c(=O)c4c3)cc(C)c2n1 [Compound 190] | 6.00 to 7.00 | 100 to 1000 | 6.00 to 7.00 | 6.00 to 7.00 | 6.00 to 7.00 | 6.00 to 7.00 | 100 to 1000 | 6.00 to 7.00 |  |  |  | 
9 | Cc1cn2cc(-c3cc(F)c4c(=O)n(C5CCNC6(CC6)C5)ccc4c3)cc(F)c2n1 (stereo not drawn) [Compound 471, 2-{4-azaspiro[2.5]octan-7-yl}-8-fluoro-6-{8-fluoro-2-methylimidazo[1,2-a]pyridin-6-yl}isoquinolin-1-one] | < 5.00 | > 10000 | < 5.00 | 6.00 to 7.00 | < 5.00 | < 5.00 | > 10000 | < 5.00 |  |  |  | 
